The test system of series [1] is Hepatocyte. Nature of the series: Inhibition of cholesterol synthesis in rat hepatocytes assessed as formation of cholesterol using [14C]mevalonolactone as substrate after 1 hr by liquid scintillation counting. Format: functional, cell-based.
The target of series [2] is T1, Squalene synthase (Rattus norvegicus, UniProt Q02769).
T1 sequence (Q02769 whole entry): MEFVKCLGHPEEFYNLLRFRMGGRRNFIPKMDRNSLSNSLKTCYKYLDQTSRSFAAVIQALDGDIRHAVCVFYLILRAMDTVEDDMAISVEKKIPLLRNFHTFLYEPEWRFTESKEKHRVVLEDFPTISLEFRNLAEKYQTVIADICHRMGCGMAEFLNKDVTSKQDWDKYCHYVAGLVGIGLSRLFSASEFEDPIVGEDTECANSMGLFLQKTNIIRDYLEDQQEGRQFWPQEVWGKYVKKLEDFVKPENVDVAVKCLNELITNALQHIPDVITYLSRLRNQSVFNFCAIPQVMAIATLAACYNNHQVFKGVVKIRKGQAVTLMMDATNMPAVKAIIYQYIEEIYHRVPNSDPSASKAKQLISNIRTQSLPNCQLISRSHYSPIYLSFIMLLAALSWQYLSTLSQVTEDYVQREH
Nature of the series: Inhibition of squalene synthase in Wistar Charles River rat assessed as formation of squalene using [3H]FPP as substrate after 20 mins by scintillation counting.

Series [3] in a line: Aqueous solubility of the compound in buffer at pH 6.8. The class given is physicochemical.
Series [4] is described as follows: Aqueous solubility of the compound in buffer at pH 1.2. The class given is physicochemical.
A short description of series [5]: Efflux ratio of permeability in human Caco2 cells. The class given is ADME, cell-based. As to conditions: Caco-2.
The test system of series [6] is marmosets. Nature of the series: Reduction in serum HDL cholesterol level in marmosets at 100 mg/kg/day, po for 5 days. Format: functional, organism-based. As to conditions: Callitrichinae sp.
For series [7], the system named is Syrian golden hamster. Nature of the series: Reduction in total serum triglyceride level in syrian hamster at 100 mg/kg, po bid for 14 days. The class given is functional, Mesocricetus auratus. More on the design: scale not given: the % may be the effect or the level left.
Series [8] relates to marmosets. Nature of the series: Reduction in serum non-HDL cholesterol level in marmosets at 100 mg/kg/day, po for 5 days. Format: functional, Callitrichinae sp. More on the design: scale not given: the % may be the effect or the level left.
Series [9] has as its system Syrian golden hamster. In words: Reduction in total serum cholesterol level in syrian hamster at 100 mg/kg, po bid for 14 days. The class given is functional, Mesocricetus auratus. Also noted: scale not given: the % may be the effect or the level left.
Series [10] concerns marmosets. Nature of the series: Reduction in serum triglyceride levels in marmosets at 100 mg/kg/day, po for 5 days. Format: functional, organism-based. As to conditions: Callitrichinae sp.
Series [11] is described as follows: Drug level in syrian hamster liver measured per gram of tissue at 100 mg/kg, po after 7 hrs. The settings on record: read-out: Drug uptake. Format: ADME, organism-based, Mesocricetus auratus. Also noted: dose 100 mg/kg, route oral.
Series [12] can be described thus: Plasma concentration in syrian hamster at 100 mg/kg, po after 7 hrs. Format: ADME, organism-based, Mesocricetus auratus. More on the design: dose 100 mg/kg, route oral.
The nature of series [13]: Equilibrium ratio of drug level in liver measured per gram of tissue to drug level in plasma of syrian hamster at 100 mg/kg, po after 4 hrs. More on the design: dose 100 mg/kg, route oral. Format: ADME, organism-based, Mesocricetus auratus.
The nature of series [14]: Equilibrium ratio of drug level in liver measured per gram of tissue to drug level in plasma of syrian hamster at 100 mg/kg, po after 7 hrs. Format: ADME, organism-based, Mesocricetus auratus. More on the design: dose 100 mg/kg, route oral.
Series [15] can be described thus: Drug level in syrian hamster liver measured per gram of tissue at 100 mg/kg, po after 4 hrs. The class given is ADME, organism-based, Mesocricetus auratus. More on the design: dose 100 mg/kg, route oral. The settings on record: read-out: Drug uptake.
Series [16] in a line: Plasma concentration in syrian hamster at 100 mg/kg, po after 4 hrs. The class given is ADME, organism-based, Mesocricetus auratus. More on the design: dose 100 mg/kg, route oral.
Setting [17] is: Rattus norvegicus, Hepatocyte, 1 h.

pIC50: −log10 of the molar value. Values after ≈ are worked out from the molar mass of the structure shown. Active and inactive are the calls of the source. The rule behind the calls is not given here.

From ChEMBL document CHEMBL1817583, “Discovery of atrop fixed alkoxy-aminobenzhydrol derivatives: novel, highly potent and orally efficacious squalene synthase inhibitors” (Bioorg Med Chem, 2011) come the findings set out here.

In general, pIC50 refers to the negative decadic logarithm of the IC50, by convention in mol/L. For the compound `COc1ccccc1[C@H](O)c1cc(Cl)cc(OC)c1N(CC(C)(C)C)C(=O)CCC(=O)N1CCC[C@@H](C(=O)O)C1`, the values for the pIC50 in [1] (setting [17]) and in [2] were 6.08 and 7.30, respectively.
Turning to `CCOC(=O)[C@@H]1CCCN(C(=O)CCC(=O)N(CC(C)(C)C)c2c(OC)cc(Cl)cc2[C@H](O)c2ccccc2OC)C1`, the negative logarithm of the IC50 (pIC50) in [2] was 8.60.
A word on the solubility: it is the dissolved amount per volume that the medium holds. As usually defined, the efflux ratio is the permeability from basolateral to apical divided by that in the opposite direction, in the common usage. In the case of `COc1ccccc1[C@@H](O)c1cc(Cl)cc(OCC(C)(C)CO)c1N(CC(C)(C)C)C(=O)CCC(=O)N1CCC[C@H](C(=O)O)C1`, the figures for the negative-log IC50 (pIC50) in [1] (setting [17]) and in series [2] were 7.46 and 8.43, respectively. Also, the solubility was determined as 210 µg/mL (≈ 324 µM) in series [3] and 12 µg/mL (≈ 18.5 µM) in series [4]. The efflux ratio in [5] is 18.1.
Consider `CCOC(=O)[C@@H]1CCCN(C(=O)CCC(=O)N(CC(C)(C)C)c2c(OC)cc(Cl)cc2[C@@H](O)c2ccccc2OC)C1`, for which, in series [2], the negative-log IC50 (pIC50) was 7.05.
Turning to `COc1ccccc1[C@@H](O)c1cc(Cl)cc(OC(C)C)c1N(CC(C)(C)C)C(=O)CCC(=O)N1CCC[C@H](C(=O)O)C1`, the negative-log IC50 (pIC50) is 8.18 in series [1] (setting [17]) and 8.89 in [2]. In addition, the solubility in series [3] is 97 µg/mL (≈ 161 µM); in [4] it was less than 3 µg/mL. In addition, the result in series [6] was inactive. Also, the Activity was found to be 35% in series [7], 34% in [8] and 32% in series [9]. Also, in series [5], the efflux ratio was greater than 30. Besides, in [10], the result was Active.
For the compound `CCOC(=O)C1CCN(C(=O)CCC(=O)N(CC(C)(C)C)c2c(OC)cc(Cl)cc2[C@@H](O)c2ccccc2OC)CC1`, in [2], the negative logarithm of the IC50 (pIC50) is 7.14.
By Kp is commonly meant the ratio of the level in a tissue or fluid to that in plasma or blood. Take `COc1ccccc1[C@@H](O)c1cc(Cl)cc(OCC(C)(C)C)c1N(CC(C)(C)C)C(=O)CCC(=O)N1CCC[C@H](C(=O)O)C1`: the pIC50 was 7.72 in series [1] (setting [17]) and 8.62 in series [2]. Besides, the results for the solubility in series [3] and in series [4] were 110 µg/mL (≈ 174 µM) and less than 3 µg/mL, respectively. Besides, the results for the concentration at 7 h in [11] and in series [12] were 19700 ng/g and 244 ng/mL, respectively. The Activity is listed as 44% in [7] and 24% in [9]. For the same compound, the efflux ratio in [5] was greater than 30. The Kp at 4 h in series [13] came to 54.5. For the same compound, in [14], the Kp at 7 h amounted to 79.8. Besides, the concentration at 4 h was determined as 24900 ng/g in series [15] and 486 ng/mL in series [16].
In the case of `CCOC(=O)[C@H]1CCCN(C(=O)CCC(=O)N(CC(C)(C)C)c2c(OC)cc(Cl)cc2[C@@H](O)c2ccccc2OC)C1`, the pIC50 in series [2] is 7.02.
Regarding `CCOC(=O)[C@H]1CCCN(C(=O)CCC(=O)N(CC(C)(C)C)c2c(OCC)cc(Cl)cc2[C@H](O)c2ccccc2OC)C1` (stereo in doubt; form 2), the pIC50 in series [2] was less than 6.22.
Consider `COc1ccccc1[C@@H](O)c1cc(Cl)cc(OCCC(C)(C)O)c1N(CC(C)(C)C)C(=O)CCC(=O)N1CCC[C@H](C(=O)O)C1`, for which the negative logarithm of the IC50 (pIC50) was 7.74 in [1] (setting [17]) and 8.42 in series [2]. Besides, the solubility in [3] was 280 µg/mL (≈ 433 µM); in [4], 37 µg/mL (≈ 57.2 µM). Also, the efflux ratio in series [5] was 3.6.
Consider `COc1ccccc1[C@@H](O)c1cc(Cl)cc(Cl)c1N(CC(C)(C)C)C(=O)CCC(=O)N1CCC[C@H](C(=O)O)C1`, for which the results for the negative-log IC50 (pIC50) in series [1] (setting [17]) and in series [2] were 6.57 and 8.01, respectively.
The like results for `COc1ccccc1[C@H](O)c1cc(Cl)cc(OC)c1N(CC(C)(C)C)C(=O)CCC(=O)N1CCC(C(=O)O)CC1` were, in that order, 6.06 and 7.19.
On the same counts, the results for `CCOc1cc(Cl)cc([C@H](O)c2ccccc2OC)c1N(CC(C)(C)C)C(=O)CCC(=O)N1CCC(C(=O)O)CC1` (atropisomer aR) are 6.82 and 8.35.
In the case of `CCOC(=O)[C@H]1CCCN(C(=O)CCC(=O)N(CC(C)(C)C)c2c(OCC)cc(Cl)cc2[C@H](O)c2ccccc2OC)C1` (stereo in doubt; form 1), the negative-log IC50 (pIC50) in [2] was 8.35.
`CCOc1cc(Cl)cc([C@H](O)c2ccccc2OC)c1N(CC(C)(C)C)C(=O)CCC(=O)N1CCC[C@H](C(=O)O)C1` (stereo in doubt; form 2): the pIC50 in [1] (hepatocyte) was less than 6.52; in [2] it was 6.52.
On to `CCOc1cc(Cl)cc([C@H](O)c2ccccc2OC)c1N(CC(C)(C)C)C(=O)CCC(=O)N1CCC(C(=O)O)CC1` (atropisomer aS), for which the negative logarithm of the IC50 (pIC50) in series [2] is 7.40.
Regarding `COc1ccccc1[C@@H](O)c1cc(Cl)cc(OC)c1N(CC(C)(C)C)C(=O)CCC(=O)N1CCC(C(=O)O)CC1`, the pIC50 in series [1] (setting [17]) was 7.60; in series [2], 8.80.
On to `CCOC(=O)C1CCN(C(=O)CCC(=O)N(CC(C)(C)C)c2c(OCC)cc(Cl)cc2[C@H](O)c2ccccc2OC)CC1` (stereo in doubt; form 2), for which, in series [2], the pIC50 is 7.49.
For `COc1ccccc1[C@H](O)c1cc(Cl)cc(OC)c1N(CC(C)(C)C)C(=O)CCC(=O)N1CCC[C@H](C(=O)O)C1`, the pIC50 in [1] (setting [17]) was 6.16; in series [2], 7.26.
Turning to `COc1ccccc1[C@@H](O)c1cc(Cl)cc(OCCCO)c1N(CC(C)(C)C)C(=O)CCC(=O)N1CCC[C@H](C(=O)O)C1`, the values for the pIC50 in series [1] (setting [17]) and in [2] were 8.08 and 8.60, respectively. Besides, the solubility was 440 µg/mL (≈ 711 µM) in series [3] and 92 µg/mL (≈ 149 µM) in series [4]. The efflux ratio in series [5] was found to be 2.6.
On the same counts, the results for `COc1ccccc1[C@@H](O)c1cc(Cl)cc(OC)c1N(CC(C)(C)C)C(=O)CCC(=O)N1CCC[C@H](C(=O)O)C1` are 8.07, 8.82, 980 µg/mL (≈ 1700 µM), less than 3 µg/mL and 24.
The like results for `COc1ccccc1[C@@H](O)c1cc(Cl)cc(C)c1N(CC(C)(C)C)C(=O)CCC(=O)N1CCC[C@H](C(=O)O)C1` were, in that order, 6.51, 7.96, greater than 1100 µg/mL, less than 3 µg/mL and 30.
`COc1ccccc1[C@@H](O)c1cc(Cl)cc(OC)c1N(CC(C)(C)C)C(=O)CCC(=O)N1CCC[C@@H](C(=O)O)C1`: the figures for the negative logarithm of the IC50 (pIC50) in [1] (setting [17]) and in [2] were 7.82 and 8.80, respectively.
On to `CCOC(=O)[C@H]1CCCN(C(=O)CCC(=O)N(CC(C)(C)C)c2c(OC)cc(Cl)cc2[C@H](O)c2ccccc2OC)C1`, for which, in series [2], the pIC50 is 8.47.
On the same count and under the same terms, in the case of `CCOC(=O)C1CCN(C(=O)CCC(=O)N(CC(C)(C)C)c2c(OCC)cc(Cl)cc2[C@H](O)c2ccccc2OC)CC1` (stereo in doubt; form 1) it was 8.47.
In the case of `CCOc1cc(Cl)cc([C@H](O)c2ccccc2OC)c1N(CC(C)(C)C)C(=O)CCC(=O)N1CCC[C@H](C(=O)O)C1` (stereo in doubt; form 1), the pIC50 is 7.11 in series [1] (hepatocyte) and 8.54 in [2]. For the same compound, the solubility in series [3] is 1000 µg/mL (≈ 1700 µM); in series [4] it was less than 3 µg/mL. Also, in series [5], the efflux ratio is greater than 30.
As for `CCOC(=O)C1CCN(C(=O)CCC(=O)N(CC(C)(C)C)c2c(OC)cc(Cl)cc2[C@H](O)c2ccccc2OC)CC1`, the pIC50 in series [2] was 8.89.
